Assay results as given in patent publication US20250179057A1, “MEK IMMUNE ONCOLOGY INHIBITORS AND THERAPEUTIC USES THEREOF” (Immuneering Corporation, priority 2022, published 2025).

Legend:
[1] = tested on: phospho-ERK in MM127 cells; assay: pERK/tERK ratio in MM127 melanoma model; assay type: cell-based; details: MM127 (NRAS p.G13R, BRAF p.G464E); 100 nM
Description: (§1) Compound (drug) treatment: Cells were plated in a 6-well plate at a density of 250,000-300,000 cells/well in 3 mL media and incubated 37° C. in a humidified, 5% CO2 incubator. […] These solutions were added to the cells (3 uL/well), mixed by swirling the plate, and incubated at 37° C. in a humidified, 5% CO2 incubator for 2 hours.
(§2) Cell lysis and protein estimation: Cells were washed with PBS, and scraped in 50 μL of lysis buffer containing protease and phosphatase inhibitors. Cell lysates were stored at −20° C. Cell lysates were thawed and spun at 12,000 rpm for one minute, 3 ul of the supernatant was added to 500 μL of Coomassie blue reagent following by 500 μL of water. […] Protein standards were used (0-20 mg/mL) to calculate protein concentrations of test samples.
(§3) All samples were heated at 95° C. for 5 minutes, cooled to room temperature and spun down. […] After the run, gel was removed and protein transfer was done using iBlot for 7 minutes, as per manufacturer's recommendations. After the transfer, nitrocellulose membrane was incubated on a shaker in 5 mL of blocking buffer at room temperature for 1 hr. The blot was then incubated overnight on a shaker in 5 ml of blocking buffer containing 0.2% Tween-20 and primary antibody, at room temperature. Anti-phospho-STAT3 antibody was used at a dilution of 1:500, the other 3 primary antibodies were used at a dilution of 1:1000.
(§4) Next day, the blot was washed 3 times for 10 min each with 10 mL of TBST followed by incubation on a shaker in 5 ml of blocking buffer containing 0.2% Tween-20 and 0.5 ul of the IRDye labeled secondary antibodies, diluted 1:10000, at room temperature for 1 hr. The blot was then washed 3 times for 10 min each with 10 mL of TBST and dried between sheets of paper towels. Imaging was done using LICOR's Odyssey imaging system, quantitation was done using their software, Image Studio version 3.1.
(§5) The nine models are described in Table 16.

[2] = tested on: phospho-MEK in MM127 cells; assay: pMEK/tMEK ratio in MM127 melanoma model; assay type: cell-based; details: MM127 (NRAS p.G13R, BRAF p.G464E); 100 nM
Description: as §1, §2, §3, §4, §5

[3] = PubChem Compound Summary; cited from earlier work

Row | Structure (SMILES) | pERK/tERK ratio normalized to DMSO [1] | pMEK/tMEK ratio normalized to DMSO [2] | A-B Permeability Ranking (Caco-2 cells) | human plasma drug half-life [3] [h]
1 | CNS(=O)(=O)Nc1cccc(Cc2c(CN(C)C)c3ccc(OC(=O)N(C)C)cc3oc2=O)c1Cl [Compound 274, 3-(2-chloro-3-((N-methylsulfamoyl)amino)benzyl)-4-((dimethylamino)methyl)-2-oxo-2H-chromen-7-yl dimethylcarbamate] | 0.533 | 0.773 |  | 
2 | Cn1cnc2c(F)c(Nc3ccc(Br)cc3Cl)c(C(=O)NOCCO)cc21 [Reference-1, Selumetinib] | 0.255 | 2.341 | High | ≥ 6.2
3 | CNS(=O)(=O)Nc1nccc(Cc2c(C)c3ccc(Oc4ncccn4)cc3oc2=O)c1F [Reference-2, reference compound] |  |  | High | 
